Drawing on ChEMBL document CHEMBL1133250, “Antitumor promoting activities of 3-O-acyl-(-)epigallocatechins” (2000), this text covers Activation and Viability for 17 compounds.

Assay type in all cases: functional
The subject of assay [1] is Human gammaherpesvirus 4. Briefly: In vitro assay for EBV activation in Raji cells induced by 12-O-tetradecanoylphorbol-13-acetate (TPA) at the concentration of 500 (mol ratio / 32 pmol TPA); (%Viability=>80).
Assay [2] has as its system Human gammaherpesvirus 4. Briefly: Tested for % viability of Rajii cells, in an in vitro assay for TPA-induced EBV activation at concentration of 10 (mol ratio / 32 pmol TPA).
Assay [3] has as its system Human gammaherpesvirus 4. Briefly: In vitro assay for EBV activation in Raji cells induced by 12-O-tetradecanoylphorbol-13-acetate (TPA) at the concentration of 10 (mol ratio / 32 pmol TPA).
For assay [4], the system named is Human gammaherpesvirus 4. Nature of the assay: Tested for % viability of Rajii cells, in an in vitro assay for TPA-induced EBV activation at concentration of 500 (mol ratio / 32 pmol TPA).
In assay [5] the test system is Human gammaherpesvirus 4. Nature of the assay: In vitro assay for EBV activation in Raji cells induced by 12-O-tetradecanoylphorbol-13-acetate (TPA) at the concentration of 1000 (mol ratio / 32 pmol TPA).
The test system of assay [6] is Human gammaherpesvirus 4. Nature of the assay: Tested for % viability of Rajii cells, in an in vitro assay for TPA-induced EBV activation at concentration of 1000 (mol ratio / 32 pmol TPA).
Assay [7] has as its system Human gammaherpesvirus 4. Nature of the assay: In vitro assay for EBV activation in Raji cells induced by 12-O-tetradecanoylphorbol-13-acetate (TPA) at the concentration of 100 (mol ratio / 32 pmol TPA).
For assay [8], the system named is Human gammaherpesvirus 4. Nature of the assay: Tested for % viability of Rajii cells, in an in vitro assay for TPA-induced EBV activation at concentration of 100 (mol ratio / 32 pmol TPA).

Turning to `CCCC(=O)O[C@@H]1Cc2c(O)cc(O)cc2O[C@@H]1c1cc(O)c(O)c(O)c1`, the Activation is on record as above 33.8% in the assay with Human gammaherpesvirus 4 [1], above 94.5% in the assay on Human gammaherpesvirus 4 [3], 13.3% in the assay with Human gammaherpesvirus 4 [5] and above 65.1% with Human gammaherpesvirus 4 [7]. The Viability in the assay on Human gammaherpesvirus 4 [2] is given as above 80%; in the assay with Human gammaherpesvirus 4 [4], above 80%; with Human gammaherpesvirus 4 [6] it was 60%; in the assay on Human gammaherpesvirus 4 [8], above 80%.
Take `CCCCCC(=O)O[C@@H]1Cc2c(O)cc(O)cc2O[C@@H]1c1cc(O)c(O)c(O)c1`: the Activation in the assay on Human gammaherpesvirus 4 [1] is reported as above 30.8%; in the assay on Human gammaherpesvirus 4 [3], above 93.5%; in the assay with Human gammaherpesvirus 4 [5], 12%; with Human gammaherpesvirus 4 [7] it was above 62.4%. The Viability was above 80% in the assay on Human gammaherpesvirus 4 [2], above 80% in the assay with Human gammaherpesvirus 4 [4], 60% with Human gammaherpesvirus 4 [6] and above 80% in the assay on Human gammaherpesvirus 4 [8].
Turning to `O=C(Cc1ccccc1)O[C@@H]1Cc2c(O)cc(O)cc2O[C@@H]1c1cc(O)c(O)c(O)c1`, the Activation with Human gammaherpesvirus 4 [1] is on record as above 37.9%; with Human gammaherpesvirus 4 [3], above 96.3%; with Human gammaherpesvirus 4 [5] it was 15.4%; with Human gammaherpesvirus 4 [7], above 67.8%. The Viability in the assay with Human gammaherpesvirus 4 [2] is recorded as above 80%; with Human gammaherpesvirus 4 [4], above 80%; with Human gammaherpesvirus 4 [6], 60%; with Human gammaherpesvirus 4 [8] it was above 80%.
Take `CCc1ccc(C(=O)O[C@@H]2Cc3c(O)cc(O)cc3O[C@@H]2c2cc(O)c(O)c(O)c2)cc1`: the Activation with Human gammaherpesvirus 4 [1] was above 35.4%; in the assay on Human gammaherpesvirus 4 [3], above 93.4%; in the assay on Human gammaherpesvirus 4 [5] it was 13.2%; in the assay on Human gammaherpesvirus 4 [7], above 64.3%. Further, the Viability is above 80% in the assay with Human gammaherpesvirus 4 [2], above 80% with Human gammaherpesvirus 4 [4], 60% in the assay on Human gammaherpesvirus 4 [6] and above 80% in the assay with Human gammaherpesvirus 4 [8].
For `CCCCCCC(C)C(=O)O[C@@H]1Cc2c(O)cc(O)cc2O[C@@H]1c1cc(O)c(O)c(O)c1` (stereo partly specified), the Activation in the assay with Human gammaherpesvirus 4 [1] is above 15.3%; in the assay with Human gammaherpesvirus 4 [3], above 87.5%; in the assay with Human gammaherpesvirus 4 [5], 5%; in the assay with Human gammaherpesvirus 4 [7], above 54.1%. Further, the Viability with Human gammaherpesvirus 4 [2] is given as above 80%; with Human gammaherpesvirus 4 [4] it was above 80%; in the assay on Human gammaherpesvirus 4 [6] it was 60%; with Human gammaherpesvirus 4 [8], above 80%.
Take `O=C(CCc1ccccc1)O[C@@H]1Cc2c(O)cc(O)cc2O[C@@H]1c1cc(O)c(O)c(O)c1`: the Activation in the assay with Human gammaherpesvirus 4 [1] was above 39%; in the assay on Human gammaherpesvirus 4 [3], above 96.5%; in the assay with Human gammaherpesvirus 4 [5], 17.8%; in the assay with Human gammaherpesvirus 4 [7], above 68.4%. Besides, the Viability with Human gammaherpesvirus 4 [2] is above 80%; in the assay with Human gammaherpesvirus 4 [4] it was above 80%; in the assay with Human gammaherpesvirus 4 [6] it was 60%; with Human gammaherpesvirus 4 [8], above 80%.
`CCCCCCCCC(C)C(=O)O[C@@H]1Cc2c(O)cc(O)cc2O[C@@H]1c1cc(O)c(O)c(O)c1` (stereo partly specified): the Activation in the assay with Human gammaherpesvirus 4 [1] was above 20.1%; with Human gammaherpesvirus 4 [3] it was above 88.9%; in the assay with Human gammaherpesvirus 4 [5] it was 7.9%; in the assay with Human gammaherpesvirus 4 [7], above 58.3%. Besides, the Viability with Human gammaherpesvirus 4 [2] was above 80%; in the assay with Human gammaherpesvirus 4 [4], above 80%; in the assay on Human gammaherpesvirus 4 [6], 60%; in the assay on Human gammaherpesvirus 4 [8], above 80%.
Consider `CCCCCCCCCCCCCCCC(=O)O[C@@H]1Cc2c(O)cc(O)cc2O[C@@H]1c1cc(O)c(O)c(O)c1`, for which the Activation is given as above 41.6% with Human gammaherpesvirus 4 [1], above 100% in the assay with Human gammaherpesvirus 4 [3], 22.7% in the assay with Human gammaherpesvirus 4 [5] and above 74.3% in the assay with Human gammaherpesvirus 4 [7]. The Viability in the assay with Human gammaherpesvirus 4 [2] was above 80%; in the assay with Human gammaherpesvirus 4 [4], above 80%; in the assay on Human gammaherpesvirus 4 [6], 60%; in the assay on Human gammaherpesvirus 4 [8] it was above 80%.
Take `Cc1ccc(CC(=O)O[C@@H]2Cc3c(O)cc(O)cc3O[C@@H]2c2cc(O)c(O)c(O)c2)cc1`: the Activation in the assay on Human gammaherpesvirus 4 [1] is given as above 35.3%; in the assay on Human gammaherpesvirus 4 [3] it was above 95.4%; with Human gammaherpesvirus 4 [5] it was 14%; in the assay with Human gammaherpesvirus 4 [7], above 65.9%. The Viability in the assay on Human gammaherpesvirus 4 [2] is on record as above 80%; in the assay on Human gammaherpesvirus 4 [4] it was above 80%; in the assay on Human gammaherpesvirus 4 [6] it was 60%; in the assay with Human gammaherpesvirus 4 [8] it was above 80%.
For the compound `CCCCCCCC(=O)O[C@@H]1Cc2c(O)cc(O)cc2O[C@@H]1c1cc(O)c(O)c(O)c1`, the Activation is listed as above 19.3% with Human gammaherpesvirus 4 [1], above 89.2% in the assay on Human gammaherpesvirus 4 [3], 6.5% in the assay with Human gammaherpesvirus 4 [5] and above 56% with Human gammaherpesvirus 4 [7]. Also, the Viability in the assay on Human gammaherpesvirus 4 [2] is on record as above 80%; with Human gammaherpesvirus 4 [4], above 80%; in the assay on Human gammaherpesvirus 4 [6], 60%; with Human gammaherpesvirus 4 [8] it was above 80%.
Turning to `CCCCCCCCCCCCCC(=O)O[C@@H]1Cc2c(O)cc(O)cc2O[C@@H]1c1cc(O)c(O)c(O)c1`, the Activation with Human gammaherpesvirus 4 [1] was above 35.2%; in the assay with Human gammaherpesvirus 4 [3] it was above 100%; in the assay with Human gammaherpesvirus 4 [5], 18.3%; in the assay on Human gammaherpesvirus 4 [7], above 68.4%. Moreover, the Viability in the assay with Human gammaherpesvirus 4 [2] is listed as above 80%; in the assay on Human gammaherpesvirus 4 [4] it was above 80%; in the assay on Human gammaherpesvirus 4 [6], 60%; in the assay with Human gammaherpesvirus 4 [8], above 80%.
Consider `CCCCCCCCCCCCCCCCCC(=O)O[C@@H]1Cc2c(O)cc(O)cc2O[C@@H]1c1cc(O)c(O)c(O)c1`, for which the Activation is above 64% in the assay on Human gammaherpesvirus 4 [1], above 100% in the assay on Human gammaherpesvirus 4 [3], 31.5% in the assay with Human gammaherpesvirus 4 [5] and above 86.9% with Human gammaherpesvirus 4 [7]. Besides, the Viability is above 80% with Human gammaherpesvirus 4 [2], above 80% in the assay on Human gammaherpesvirus 4 [4], 60% with Human gammaherpesvirus 4 [6] and above 80% in the assay with Human gammaherpesvirus 4 [8].
As for `CCCCCCCCCC(=O)O[C@@H]1Cc2c(O)cc(O)cc2O[C@@H]1c1cc(O)c(O)c(O)c1`, the Activation in the assay with Human gammaherpesvirus 4 [1] is on record as above 22.7%; with Human gammaherpesvirus 4 [3] it was above 91.9%; with Human gammaherpesvirus 4 [5], 9.3%; with Human gammaherpesvirus 4 [7], above 61.4%. Further, the Viability is above 80% in the assay with Human gammaherpesvirus 4 [2], above 80% with Human gammaherpesvirus 4 [4], 60% in the assay on Human gammaherpesvirus 4 [6] and above 80% in the assay on Human gammaherpesvirus 4 [8].
`CCCCCCCCCCCC(=O)O[C@@H]1Cc2c(O)cc(O)cc2O[C@@H]1c1cc(O)c(O)c(O)c1`: the Activation in the assay on Human gammaherpesvirus 4 [1] is on record as above 31.9%; in the assay on Human gammaherpesvirus 4 [3], above 94.2%; in the assay with Human gammaherpesvirus 4 [5], 12.7%; with Human gammaherpesvirus 4 [7] it was above 65.8%. The Viability in the assay on Human gammaherpesvirus 4 [2] is reported as above 80%; with Human gammaherpesvirus 4 [4] it was above 80%; in the assay on Human gammaherpesvirus 4 [6], 60%; with Human gammaherpesvirus 4 [8], above 80%.
For `Cc1ccc(C(=O)O[C@@H]2Cc3c(O)cc(O)cc3O[C@@H]2c2cc(O)c(O)c(O)c2)cc1`, the Activation was above 33% with Human gammaherpesvirus 4 [1], above 91.7% in the assay on Human gammaherpesvirus 4 [3], 10.4% in the assay on Human gammaherpesvirus 4 [5] and above 62.8% with Human gammaherpesvirus 4 [7]. For the same compound, the Viability was above 80% with Human gammaherpesvirus 4 [2], above 80% with Human gammaherpesvirus 4 [4], 60% in the assay on Human gammaherpesvirus 4 [6] and above 80% in the assay on Human gammaherpesvirus 4 [8].
`Oc1cc(O)c2c(c1)O[C@H](c1cc(O)c(O)c(O)c1)[C@H](O)C2` [EPIGALLOCATECHIN]: the Activation is listed as above 44.9% in the assay with Human gammaherpesvirus 4 [1], above 100% in the assay on Human gammaherpesvirus 4 [3], 19.3% in the assay on Human gammaherpesvirus 4 [5] and above 73% in the assay with Human gammaherpesvirus 4 [7]. Moreover, the Viability in the assay on Human gammaherpesvirus 4 [2] is listed as above 80%; with Human gammaherpesvirus 4 [4] it was above 80%; in the assay on Human gammaherpesvirus 4 [6], 60%; with Human gammaherpesvirus 4 [8], above 80%.
As to `O=C(O[C@@H]1Cc2c(O)cc(O)cc2O[C@@H]1c1cc(O)c(O)c(O)c1)c1cc(O)c(O)c(O)c1` [EPIGALOCATECHIN GALLATE], the Activation with Human gammaherpesvirus 4 [1] was above 35%; in the assay with Human gammaherpesvirus 4 [3], above 95.9%; with Human gammaherpesvirus 4 [5] it was 15.5%; in the assay on Human gammaherpesvirus 4 [7], above 69%. Besides, the Viability is listed as above 80% in the assay with Human gammaherpesvirus 4 [2], above 80% with Human gammaherpesvirus 4 [4], 60% in the assay on Human gammaherpesvirus 4 [6] and above 80% in the assay with Human gammaherpesvirus 4 [8].
